Experiments:
human cyclin B-CDK1 = human cyclin B-CDK1 (Homo sapiens, UniProt P06493); test: FlashPlate kinase assay, cyclin B-CDK1, Rb substrate; format: biochemical; settings: recombinant cyclin B-CDK1, Rb phosphorylation, 1 μM ATP
Procedure: (§1) To determine inhibition of Cdk4, Cdk2 and Cdk1 activity, kinase assays were conducted using FlashPlate™ assays (NEN™-Life Science Products). FlashPlate assays were performed using recombinant human cyclin B-CDK1, human cyclin E-CDK2 or human cyclin D1-CDK4 complexes. GST-cyclinE (GST-cycE), CDK2, GST-cyclinB (GST-cycB), CDK1, GST-CDK4 and cyclin D1 (cycD1) cDNA clones in baculovirus vectors were provided by Dr. W. Harper at the Baylor College of Medicine, Houston, Tex. Proteins were co-expressed in High Five™ insect cells and the complex was purified on glutathione Sepharose resin (Pharmacia, Piscataway, N.J.) as previously described (Harper, J. W. et al. Cell 1993, 75, 805-816). A 6×-Histidine tagged truncated form of retinoblastoma (Rb) protein (amino acid 386-928) was used as the substrate for the cycD1-CDK4, cycB-CDK1 and the cycE-CDK2 assays (the expression plasmid was provided by Dr. Veronica Sullivan, Department of Molecular Virology, Roche Research Centre, Welwyn Garden City, United Kingdom). The Rb protein is a natural substrate for phosphorylation by CDK4, CDK2 and CDK1 (see Herwig and Strauss Eur. J. Biochem. Vol. 246 (1997) pp. 581-601 and the references cited therein).
(§2) The expression of the 62 Kd protein was under the control of an IPTG inducible promoter in an M15 E. coli strain. Cells were lysed by sonication and purification was carried out by binding lysates at pH 8.0 to a Ni-chelated agarose column pretreated with 1 mM imidazole. The resin was then washed several times with incrementally decreasing pH buffers to pH 6.0, and eluted with 500 mM imidazole. Eluted protein was dialysed against 20 mM HEPES pH 7.5, 30% glycerol, 200 mM NaCl, and 1 mM DTT. Purified Rb fusion protein stocks were quantitated for protein concentration, aliquoted, and stored at −70° C.
(§3) For all three kinase assays reported herein, 96-well FlashPlates were coated with Rb protein at 10 μg/ml, using 100 μl per well. Plates were incubated at 4° C. overnight or at room temperature for 3 hours on a shaker. To control for nonspecific phosphorylation, one row of wells was coated with 100 μl/well coating buffer (20 mM HEPES, 0.2 M NaCl). Plates were then washed twice with wash buffer (0.01% Tween 20 in phosphate-buffered saline). Compounds to be tested (“test compounds”) were added to the wells at 5×final concentration. Reactions were initiated by immediate addition of 40 μl reaction mix (25 mM HEPES, 20 mM MgCl2, 0.002% Tween 20, 2 mM DTT, 1 μM ATP, 4 nM ^33P-ATP) and a sufficient amount of enzyme to give counts that were at least 10-fold above background. Plates were incubated at room temperature on a shaker for 30 minutes. Plates were washed four times with the wash buffer, sealed, and counted on the TopCount scintillation counter (Packard Instrument Co., Downers Grove, Ill.]. The percent inhibition of Rb phosphorylation, which is a measure of the inhibition of CDK activity, was determined according to the following formula: [formula]
(§4) where “test compound” refers to the average counts per minute of the test duplicates, “nonspecific” refers to the average counts per minute when no CyclinD/Cdk4, etc., was added, and “total” refers to the average counts per minute when no compound was added. The IC50 value is the concentration of test compound that reduces by 50% the protein-kinase induced incorporation of the radiolabel under the test conditions described.

human cyclin E-CDK2 = human cyclin E-CDK2 (Homo sapiens, UniProt P24941); test: FlashPlate kinase assay, cyclin E-CDK2, Rb substrate; format: biochemical; settings: recombinant cyclin E-CDK2, Rb phosphorylation, 1 μM ATP
Procedure: as §1, §2, §3, §4

human cyclin D1-CDK4 = human cyclin D1-CDK4 (Homo sapiens, UniProt P11802); test: FlashPlate kinase assay, cyclin D1-CDK4, Rb substrate; format: biochemical; settings: recombinant cyclin D1-CDK4, Rb phosphorylation, 1 μM ATP
Procedure: as §1, §2, §3, §4

[1] = tested on: HCT116, a colorectal carcinoma cell line; test: Tetrazolium dye proliferation assay (MTT assay); format: cell-based; settings: Homo sapiens, HCT-116, HCT116 cells, inhibition of cell proliferation
Procedure: Proliferation was evaluated by the tetrazolium dye assay according to the procedure of Denizot and Lang (Denizot, F. and Lang, R. J Immunol Methods 1986, 89, 271-277). The cell line used was HCT116, a colorectal carcinoma cell line obtained from the American Type Cell Culture Collection (ATCC; Rockville, Md.). The cells were grown in McCoy's 5A medium supplemented with 10% FCS and L-glutamine.
Cells were plated at the appropriate seeding density to give logarithmic growth over the course of the assay in a 96-well tissue culture plate. Plates were incubated overnight at 37° C. in a humidified incubator with 5% CO2. The next day, test compounds were serially diluted to four times the final concentration in the appropriate medium containing 1.2% DMSO. One-fourth final volume of each dilution was added in duplicate to the plates containing cells. The same volume of 1.2% DMSO in medium was added to a row of “control wells” such that the final concentration of DMSO in each well was 0.3%. Wells to which no cells were added served as the “blank.” Wells to which no inhibitor was added served as “no inhibitor control.” The plates were) returned to the incubator, and at set time points (determined by their growth curves) plates were analyzed as described below.
3-(4,5-dimethylthiazole-2-yl)-2,5-diphenyl-2H-tetrazolium bromide (thiazolyl blue; MTT; Sigma) was added to each well to yield a final concentration of 1 mg/ml. Plates were returned to the incubator for 2.5-3 hours at 37° C. The MTT-containing medium was removed and the resulting formazan metabolite was solubilized in 100% ethanol with shaking for 15 minutes at room temperature. Absorbance readings were taken in a microtiter plate reader (Dynatech and Molecular Devices plate readers were used interchangeably) at a wavelength of 570 nm with a 650 nm reference. Percent inhibition (% INH) is calculated by subtracting the absorbance of the blank well from all wells, then subtracting the ratio of the average absorbance of each test duplicate (SAVE) by the average of the controls (CAVE) from 1.00. The final number is then multiplied by 100 (% INH=(1.00−SAVE/CAVE)×100). The concentration at which 50% inhibition of cell proliferation is obtained (the IC50) is determined from the linear regression of a plot of the logarithm of the concentration versus percent inhibition.

Chain of human cyclin D1-CDK4 (P11802 whole entry): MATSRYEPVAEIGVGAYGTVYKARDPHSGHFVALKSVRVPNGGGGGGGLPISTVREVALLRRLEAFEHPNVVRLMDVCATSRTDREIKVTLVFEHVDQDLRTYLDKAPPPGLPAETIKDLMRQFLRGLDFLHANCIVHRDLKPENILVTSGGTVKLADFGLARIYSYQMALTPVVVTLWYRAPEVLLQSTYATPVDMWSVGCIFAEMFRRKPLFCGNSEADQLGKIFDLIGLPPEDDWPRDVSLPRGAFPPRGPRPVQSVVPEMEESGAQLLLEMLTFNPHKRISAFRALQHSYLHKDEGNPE
Chain of human cyclin D1-CDK4 (P24385 whole entry partner): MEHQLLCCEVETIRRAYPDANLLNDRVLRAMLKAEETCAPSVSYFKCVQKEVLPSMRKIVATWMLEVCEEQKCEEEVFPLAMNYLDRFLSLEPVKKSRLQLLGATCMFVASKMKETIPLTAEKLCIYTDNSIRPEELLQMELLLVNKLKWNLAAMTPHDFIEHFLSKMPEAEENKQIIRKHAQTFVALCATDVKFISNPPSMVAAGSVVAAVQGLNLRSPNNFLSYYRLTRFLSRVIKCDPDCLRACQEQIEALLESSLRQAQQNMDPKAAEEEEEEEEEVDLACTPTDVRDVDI
Chain of human cyclin B-CDK1 (P06493 whole entry): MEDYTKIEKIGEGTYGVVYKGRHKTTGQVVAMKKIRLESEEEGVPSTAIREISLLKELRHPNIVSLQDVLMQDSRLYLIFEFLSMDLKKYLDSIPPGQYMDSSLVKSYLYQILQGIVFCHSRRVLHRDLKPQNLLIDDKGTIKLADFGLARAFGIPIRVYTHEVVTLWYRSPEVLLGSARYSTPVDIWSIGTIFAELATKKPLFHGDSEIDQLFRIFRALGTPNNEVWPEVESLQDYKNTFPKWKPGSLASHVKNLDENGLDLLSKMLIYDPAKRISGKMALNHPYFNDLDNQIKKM
Chain of human cyclin B-CDK1 (P14635 whole entry partner): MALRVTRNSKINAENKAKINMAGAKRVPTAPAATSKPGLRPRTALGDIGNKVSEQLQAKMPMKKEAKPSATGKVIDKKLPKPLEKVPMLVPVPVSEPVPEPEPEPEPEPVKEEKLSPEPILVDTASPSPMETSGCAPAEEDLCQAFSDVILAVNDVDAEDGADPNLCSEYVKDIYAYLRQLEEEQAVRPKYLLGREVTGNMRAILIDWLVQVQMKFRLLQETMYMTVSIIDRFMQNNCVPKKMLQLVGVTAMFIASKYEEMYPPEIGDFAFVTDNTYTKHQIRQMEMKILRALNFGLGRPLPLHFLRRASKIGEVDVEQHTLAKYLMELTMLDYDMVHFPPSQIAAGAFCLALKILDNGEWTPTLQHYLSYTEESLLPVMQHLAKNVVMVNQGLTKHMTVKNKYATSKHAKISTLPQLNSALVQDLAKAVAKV

Row | SMILES | IC50 (human cyclin B-CDK1) | IC50 (human cyclin E-CDK2) | IC50 (human cyclin D1-CDK4) | IC50 [1]
1 | C[C@H](COc1ccc(Nc2nc(N)c(C(=O)c3cccc(F)c3)s2)cc1)N1CCCC1 [Example 41, (R)-[4-Amino-2-[4-(2-pyrrolidin-1-yl-propoxy)-phenylamino]-thiazol-5-yl]-(3-fluoro-phenyl)-methanone] | 435 nM | 1040 nM | 63 nM | 669 nM
2 | CCN1CCC(Oc2ccc(Nc3nc(N)c(C(=O)c4cccc(F)c4)s3)cc2)C1 (centres unmarked) [Example 42, [4-Amino-2-[4-(1-ethyl-pyrrolidin-3-yloxy)-phenylamino]-thiazol-5-yl]-(3-fluoro-phenyl)-methanone] | 298 nM | 496 nM | 57 nM | 859 nM
3 | CCN1CCCC(Oc2ccc(Nc3nc(N)c(C(=O)c4cccc(F)c4)s3)cc2)C1 (centres unmarked) [Example 43, [4-Amino-2-[4-(1-ethyl-piperidin-3-yloxy)-phenylamino]-thiazol-5-yl]-(3-fluoro-phenyl)-methanone] | 700 nM | 1150 nM | 59 nM | 760 nM
4 | CN1CCC[C@H]1COc1ccc(Nc2nc(N)c(C(=O)c3cccc(F)c3)s2)cc1 [Example 44, (S)-[4-Amino-2-[4-(1-methyl-pyrrolidin-2-ylmethoxy)-phenylamino]-thiazol-5-yl]-(3-fluoro-phenyl)-methanone] | 594 nM | 1270 nM | 65 nM | 390 nM
5 | Nc1nc(Nc2ccc(OC3CCNC3)cc2)sc1C(=O)c1cccc(F)c1 (centres unmarked) [Example 45, [4-Amino-2-[4-(pyrrolidin-3-yloxy)-phenylamino]-thiazol-5-yl]-(3-fluoro-phenyl)-methanone] | 158 nM | 589 nM | 39 nM | 1240 nM
6 | Cc1cccc(C(=O)c2sc(Nc3ccc(OCCN(C)C)cc3)nc2N)c1 [Example 50, [4-Amino-2-[4-(2-dimethylamino-ethoxy)-phenylamino]-thiazol-5-yl]-m-tolyl-methanone] | 1700 nM | 3360 nM | 60 nM | 1040 nM
7 | Cc1cccc(C(=O)c2sc(Nc3ccc(OCCN4CCCC4)cc3)nc2N)c1 [Example 51, [4-Amino-2-[4-(2-pyrrolidin-1-yl-ethoxy)-phenylamino]-thiazol-5-yl]-m-tolyl-methanone] | 1060 nM | 2930 nM | 53 nM | 614 nM
8 | CCc1cccc(C(=O)c2sc(Nc3ccc(OCCN(C)C)cc3)nc2N)c1 [Example 52, [4-Amino-2-[4-(2-dimethylamino-ethoxy)-phenylamino]-thiazol-5-yl]-(3-ethyl-phenyl)-methanone] | 3230 nM | 1210 nM | 27 nM | 526 nM
9 | CCc1cccc(C(=O)c2sc(Nc3ccc(OCCN4CCCC4)cc3)nc2N)c1 [Example 53, [4-Amino-2-[4-(2-pyrrolidin-1-yl-ethoxy)-phenylamino]-thiazol-5-yl]-(3-ethyl-phenyl)-methanone] | 2990 nM | 930 nM | 22 nM | 402 nM
10 | CCc1cccc(C(=O)c2sc(Nc3ccc(OCC(C)(C)N(C)C)cc3)nc2N)c1 [Example 61, [4-Amino-2-[4-(2-dimethylamino-2-methyl-propoxy)-phenylamino]-thiazol-5-yl]-(3-ethyl-phenyl)-methanone] | 1210 nM | 1560 nM | 46 nM | 954 nM
11 | CCc1cccc(C(=O)c2sc(Nc3ccc(OC[C@@H](C)N(C)C)cc3)nc2N)c1 [Example 63, (R)-[4-Amino-2-[4-(2-dimethylamino-propoxy)-phenylamino]-thiazol-5-yl]-(3-ethyl-phenyl)-methanone] | 2570 nM | 1900 nM | 80 nM | 623 nM

Results, then the compound that gave them:

Row | IC50 (human cyclin B-CDK1) | IC50 (human cyclin E-CDK2) | IC50 (human cyclin D1-CDK4) | IC50 [1] | SMILES
12 | 581 nM | 1010 nM | 87 nM | 346 nM | C[C@H](COc1ccc(Nc2nc(N)c(C(=O)c3cccc(F)c3)s2)cc1)N(C)C [Example 40, (R)-[4-Amino-2-[4-(2-dimethylamino-propoxy)-phenylamino]-thiazol-5-yl]-(3-fluoro-phenyl)-methanone]
13 | 381 nM | 1240 nM | 36 nM | 1640 nM | CN(C)CCOc1ccc(Nc2nc(N)c(C(=O)c3cccc([N+](=O)[O-])c3)s2)cc1 [Example 54, [4-Amino-2-[4-(2-dimethylamino-ethoxy)-phenylamino]-thiazol-5-yl]-(3-nitro-phenyl)-methanone]
14 | 376 nM | 4890 nM | 66 nM | 2920 nM | Nc1nc(Nc2ccc(OCCN3CCCC3)cc2)sc1C(=O)c1ccc2c(c1)OCO2 [Example 57, [4-Amino-2-[4-(2-pyrrolidin-1-yl-ethoxy)-phenylamino]-thiazol-5-yl]-benzo[1,3]dioxol-5-yl-methanone]
15 | 1810 nM | 4440 nM | 33 nM | 1300 nM | CCOc1cccc(C(=O)c2sc(Nc3ccc(OCCN4CCCC4)cc3)nc2N)c1 [Example 62, [4-Amino-2-[4-(2-pyrrolidin-1-yl-ethoxy)-phenylamino]-thiazol-5-yl]-(3-ethoxy-phenyl)-methanone]
16 | 1070 nM | 1690 nM | 85 nM | 3240 nM | CN(C)CCOc1ccc(Nc2nc(N)c(C(=O)c3cccc(Br)c3)s2)cc1 [Example 65, [4-Amino-2-[4-(2-dimethylamino-ethoxy)-phenylamino]-thiazol-5-yl]-(3-bromo-phenyl)-methanone]
17 | 2760 nM | 1480 nM | 70 nM | 846 nM | CCc1cccc(C(=O)c2sc(Nc3ccc(OC[C@@H](C)N4CCCC4)cc3)nc2N)c1 [Example 67, (R)-[4-Amino-2-[4-(2-pyrrolidin-1-yl-propoxy)-phenylamino]-thiazol-5-yl]-(3-ethyl-phenyl)-methanone]
